Reference: patent US20250147039A1, “Compounds for complexation of rare earth elements and/or s-, p-, d- block metals, their coordination compounds, peptide conjugates, method of their preparation and use thereof” (USTAV ORGANICKE CHEMIE A BIOCHEMIE AV CR V.V.I., priority 2021, published 2025)

Columns and labels:
Format in all cases: physicochemical
[1] = Dissociation of chelates in aq. 0.1M HCl at RT (acid decomplexation kinetic inertness) (Chart 20)
[2] = Dissociation of chelates in aq. 0.1M HCl at 80° C. (acid decomplexation kinetic inertness) (Chart 19)
[3] = Dissociation of chelates in aq. 6.0M HCl at 80° C. (acid decomplexation kinetic inertness) (Chart 17)
[4] = Dissociation of chelates in aq. 1.0M HCl at 80° C. (acid decomplexation kinetic inertness) (Chart 18)

Structure (SMILES) | fraction of intact chelate ([1]; 1 month) [%] | fraction of intact chelate ([1]; 1 week) [%] | fraction of intact chelate ([1]; 1 hour) [%] | fraction of intact chelate ([1]; 1 day) [%] | fraction of intact chelate ([2]; 1 month) [%] | fraction of intact chelate ([2]; 1 week) [%] | fraction of intact chelate ([2]; 1 hour) [%] | fraction of intact chelate ([2]; 1 day) [%] | fraction of intact chelate ([3]; 1 month) [%] | fraction of intact chelate ([3]; 1 week) [%] | fraction of intact chelate ([3]; 1 hour) [%] | fraction of intact chelate ([3]; 1 day) [%] | fraction of intact chelate ([4]; 1 month) [%] | fraction of intact chelate ([4]; 1 week) [%] | fraction of intact chelate ([4]; 1 hour) [%] | fraction of intact chelate ([4]; 1 day) [%]
O=C1C[N@@]2CC[N@]3CC[N@@](CC[N@](CC2)Cc2cccc(n2)-c2cnnn2Cc2cc(-c4ccccc4)cc(n2)C3)CC(=O)[O][Lu][O]1 [TD522] | 100 | 100 | 100 | 100 | 100 | 100 | 100 | 100 | 98 | 99 | 100 | 100 | 100 | 100 | 100 | 100
O=C1C[N@@]2CC[N@]3CC[N@@](CC[N@](CC2)Cc2cccc(n2)-c2cnnn2Cc2cc(-c4ccccc4)cc(n2)C3)CC(=O)[O][Ce][O]1 [TD870] | 0 | 0 | 95 | 37 | 0 | 0 | 0 | 0 | 0 | 0 | 0 | 0 | 0 | 0 | 0 | 0
O=C1C[N@@]2CC[N@]3CC[N@@](CC[N@](CC2)Cc2cccc(n2)-c2cnnn2Cc2cc(-c4ccccc4)cc(n2)C3)CC(=O)[O][Er][O]1 [TD865] | 100 | 100 | 100 | 100 | 100 | 100 | 100 | 100 | 24 | 71 | 99 | 95 | 99 | 100 | 100 | 100
O=C1C[N@@]2CC[N@]3CC[N@@](CC[N@](CC2)Cc2cccc(n2)-c2cnnn2Cc2cc(-c4ccccc4)cc(n2)C3)CC(=O)[O][Eu][O]1 [TD599] | 100 | 100 | 100 | 100 | 21 | 83 | 100 | 97 | 0 | 0 | 0 | 0 | 0 | 0 | 92 | 10
O=C1C[N@@]2CC[N@]3CC[N@@](CC[N@](CC2)Cc2cccc(n2)-c2cn(nn2)Cc2cc(-c4ccccc4)cc(n2)C3)CC(=O)[O][Lu][O]1 [TD874] | 0 | 14 | 99 | 68 | 0 | 0 | 0 | 0 | 0 | 0 | 0 | 0 | 0 | 0 | 0 | 0
O=C1C[N@@]2CC[N@]3CC[N@@](CC[N@](CC2)Cc2cccc(n2)-c2cnnn2Cc2cc(-c4ccccc4)cc(n2)C3)CC(=O)[O][Nd][O]1 [TD868] | 2 | 54 | 99 | 90 | 0 | 0 | 76 | 0 | 0 | 0 | 0 | 0 | 0 | 0 | 0 | 0
O=P1(c2ccccc2)C[N@@]2CC[N@]3CC[N@@](CC[N@](CC2)Cc2cccc(n2)-c2cnnn2Cc2cccc(n2)C3)CP(=O)(c2ccccc2)[O][Gd][O]1 (stereo partly shown) [TD925] | 100 | 100 | 100 | 100 | 60 | 90 | 100 | 98 | 0 | 0 | 77 | 0 | 0 | 21 | 100 | 82
O=C1C[N@@]2CC[N@]3CC[N@@](CC[N@](CC2)Cc2cccc(n2)-c2cnnn2Cc2cc(-c4ccccc4)cc(n2)C3)CC(=O)[O][Sm][O]1 [TD867] | 96 | 99 | 100 | 100 | 1 | 35 | 99 | 86 | 0 | 0 | 0 | 0 | 0 | 0 | 62 | 0
O=C([O-])CN1CCN2CCN(CC(=O)[O-])CCN(CC1)Cc1cccc(n1)-c1cnnn1Cc1cc(-c3ccccc3)cc(n1)C2.[Zn+2] [TD890] | 5 | 54 | 100 | 93 | 0 | 0 | 46 | 0 | 0 | 0 | 0 | 0 | 0 | 0 | 0 | 0
O=C([O-])CN1CCN2CCN(CC(=O)[O-])CCN(CC1)Cc1cccc(n1)-c1cnnn1Cc1cc(-c3ccccc3)cc(n1)C2.[Ca+2] [TD863] | 0 | 0 | 39 | 0 | 0 | 0 | 0 | 0 | 0 | 0 | 0 | 0 | 0 | 0 | 0 | 0
O=C1C[N@@]2CC[N@]3CC[N@@](CC[N@](CC2)Cc2cccc(n2)-c2cn(nn2)Cc2cc(-c4ccccc4)cc(n2)C3)CC(=O)[O][Gd][O]1 [TD875] | 0 | 6 | 98 | 58 | 0 | 0 | 0 | 0 | 0 | 0 | 0 | 0 | 0 | 0 | 0 | 0
O=C1C[N@@]2CC[N@]3CC[N@@](CC[N@](CC2)Cc2cccc(n2)-c2cnnn2Cc2cc(-c4ccccc4)cc(n2)C3)CC(=O)[O][Cd][O]1 [TD880] | 100 | 100 | 100 | 100 | 100 | 100 | 100 | 100 | 0 | 0 | 43 | 0 | 63 | 90 | 100 | 99
O=C1C[N@@]2CC[N@]3CC[N@@](CC[N@](CC2)Cc2cccc(n2)-c2cnnn2Cc2cc(-c4ccccc4)cc(n2)C3)CC(=O)[O][Ho][O]1 [TD648] | 100 | 100 | 100 | 100 | 100 | 100 | 100 | 100 | 0 | 17 | 99 | 81 | 96 | 99 | 100 | 100
